Test results as given in ChEMBL document CHEMBL1152171 (Bioorg Med Chem Lett, 2008).

Target: Synaptic vesicular amine transporter (Rattus norvegicus, UniProt Q01827)
Experiment: Displacement of [3H]dihydrotetrabenazine from vesicular monoamine transporter-2 in rat brain synaptosome
Format: tissue-based

Sequence of Synaptic vesicular amine transporter (Q01827 whole entry): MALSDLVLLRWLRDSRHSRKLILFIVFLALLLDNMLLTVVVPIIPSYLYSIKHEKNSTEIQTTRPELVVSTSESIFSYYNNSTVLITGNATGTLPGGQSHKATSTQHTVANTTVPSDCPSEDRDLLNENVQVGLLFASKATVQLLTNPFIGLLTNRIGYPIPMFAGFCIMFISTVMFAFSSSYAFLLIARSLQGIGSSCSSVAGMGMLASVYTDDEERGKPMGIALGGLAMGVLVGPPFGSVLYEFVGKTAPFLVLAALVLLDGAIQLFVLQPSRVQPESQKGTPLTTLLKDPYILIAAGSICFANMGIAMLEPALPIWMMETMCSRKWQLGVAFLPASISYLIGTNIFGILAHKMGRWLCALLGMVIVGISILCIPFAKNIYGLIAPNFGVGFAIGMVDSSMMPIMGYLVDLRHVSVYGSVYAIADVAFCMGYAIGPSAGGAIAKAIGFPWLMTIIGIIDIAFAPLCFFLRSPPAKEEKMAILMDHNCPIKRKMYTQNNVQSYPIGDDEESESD

Compound	Ki
CN1[C@@H](c2ccccc2)CCC[C@H]1c1ccccc1	> 100 µM
c1ccc(CCC[C@H]2CCC[C@@H](CCc3ccccc3)N2)cc1	4.6 µM
c1ccc(CCC[C@H]2CCC[C@@H](Cc3ccccc3)N2)cc1	1.13 µM
CN1[C@@H](CCCc2ccccc2)CCC[C@H]1CCc1ccccc1	0.88 µM
c1ccc(CC[C@H]2CCC[C@@H](c3ccccc3)N2)cc1	28.4 µM
CN1[C@@H](Cc2ccccc2)CCC[C@H]1Cc1ccccc1	10.5 µM
c1ccc(C[C@H]2CCC[C@@H](Cc3ccccc3)N2)cc1	7.68 µM
CN1[C@H](CCCc2ccccc2)CCC[C@@H]1CCCc1ccccc1	1 µM
c1ccc(CCC[C@H]2CCC[C@@H](c3ccccc3)N2)cc1	28.6 µM
CN1[C@@H](CCCc2ccccc2)CCC[C@H]1c1ccccc1	62.5 µM
CN1[C@@H](CCc2ccccc2)CCC[C@H]1Cc1ccccc1	2.77 µM
c1ccc(CCC[C@@H]2CCC[C@H](CCCc3ccccc3)N2)cc1	4.56 µM
CN1[C@@H](Cc2ccccc2)CCC[C@H]1c1ccccc1	13.6 µM
c1ccc(CC[C@H]2CCC[C@@H](Cc3ccccc3)N2)cc1	12.2 µM
CN1[C@@H](CCCc2ccccc2)CCC[C@H]1Cc1ccccc1	1.62 µM
c1ccc(C[C@H]2CCC[C@@H](c3ccccc3)N2)cc1	24.1 µM
